# Literature values, collected in patent US20160228385A1, “PURIFIED CBD AND CBDA, AND METHODS, COMPOSITIONS AND PRODUCTS EMPLOYING CBD OR CBDA” (COLORADO CAN LLC, priority 2015, published 2016).
# Tested on: human subjects seeking to quit smoking
# Conditions: CBD administered via an inhaler, compared to no reduction with placebo inhaler
structure (smiles),measurement,value
"C=C(C)[C@@H]1CCC(C)=C[C@H]1c1c(O)cc(CCCCC)cc1O [CBD, Cannabidiol]",reduction of cigarette use,40%
